These results are taken from US9174994B2, “Enhanced treatment regimens using mTor inhibitors” (INTELLIKINE LLC, priority 2011, dated 2015).

The assay has as its system PC3. Briefly: PC3 proliferation. The assay is classed as cell-based. Conditions: Homo sapiens, PC-3; Table 1.

Compound `CC(=O)Nc1nc2cc(-c3nn(C(C)C)c4ncnc(N)c34)ccc2o1` [Compound 2] registered an IC50 of less than 1 µM.

`CC(C)n1nc(-c2ccc3nc(N)oc3c2)c2c(N)ncnc21` [Compound 4]: the IC50 is less than 10 µM.

Consider `Nc1nc2cc(-c3nn(C4CCOCC4)c4ncnc(N)c34)ccc2o1` [Compound 5], for which the IC50 was less than 0.1 µM.

On to `Nc1nc2cc(-c3nn(C4CCC(N5CCOCC5)CC4)c4ncnc(N)c34)ccc2o1` (stereo not shown) [Compound 6], for which the IC50 was less than 1 µM.

Compound `CC(=O)N1CCC(n2nc(-c3ccc4oc(N)nc4c3)c3c(N)ncnc32)CC1` [Compound 7] returned an IC50 of less than 10 µM.

The compound `CC(C)n1cc(-c2ccc3oc(N)nc3c2)c2c(N)ncnc21` [Compound 8] gave an IC50 of less than 0.1 µM.

In turn, `Nc1nc2cc(-c3cn(C4CCOCC4)c4ncnc(N)c34)ccc2o1` [Compound 9] had an IC50 of less than 0.1 µM.

Regarding `CC(C)n1nc(-c2ccc3onc(N)c3c2)c2c(N)ncnc21` [Compound 10], the IC50 is greater than 10 µM.

As for `CC(=O)Nc1noc2cc(-c3nn(C(C)C)c4ncnc(N)c34)ccc12` [Compound 11], the IC50 was greater than 10 µM.

In turn, `CC(C)n1nc(-c2ccc3c(N)noc3c2)c2c(N)ncnc21` [Compound 12] registered an IC50 greater than 10 µM.
